# Data taken from US6972287B1, “Method of inhibiting amyloid protein aggregation and imaging amyloid deposits” (Pfizer Inc., priority 1999, dated 2005).
# Several values for one entry are separate records, joined by “and”; a condition that tells them apart may be missing. Equal values may be shown once.
# How the values were obtained:
# Aβ(1-40) [1] = target: T1, Aβ(1-40) (Homo sapiens, UniProt P05067); assay: BASSR (Beta-Amyloid Self-Seeding Radioassay), inhibitors of self-seeded amyloid fibril growth; assay type: biochemical; conditions: 30 μM soluble Aβ(1-40) + 125I-labeled Aβ(1-40), 37° C., 3 to 5 hours; replicate values; letter = synthetic lot; ppt = precipitate; V-shaped = inhibition followed by precipitation
# T1 construct: […]; purchased Bachem, Torrance, Calif
# Protocol: BASSR (Beta-Amyloid Self-Seeding Radioassay)
# (§1) An assay for inhibitors of self-seeded amyloid fibril growth
# Assay Buffer—50 mM sodium phosphate, pH 7.5, 100 mM NaCl, 0.02% NaN3, 1 M urea (filter and store at 4° C.).
# (§2) Typically, the solution should be stored until no lag phase is seen in the assay.
# ^125I-labeled Aβ(1-40)—150K-350K cpm/μL in 100% acetonitrile—0.1% trifluoroacetic acid (TFA)—1% β-mercaptoethanol (aliquots stored at −20° C.). ^125I-labeled Aβ(1-40) can be made in accordance with the procedure set forth by H. LeVine, III in Neurobiol. Aging, 16, 755, (1995), which is hereby incorporated by reference, or this reagent may be purchased from Amersham, Arlington Heights, Ill.
# The following are the amounts of the components of the reaction mixture sufficient for 50 assay wells:
# • 1) Prepare reaction mixture above by mixing components and storing on ice. • 2) Pipet 14.5 μL of reaction mixture into each of 50 wells on a polypropylene U-bottom 96-well microtiter plate on ice. (Costar 3794). • 3) Add 1.7 μL of diluted compound to be tested to each well in a column of eight, including solvent control. Serial 3-fold dilutions from 1 mM (100 μM final) in assay buffer−urea=7 dilutions+zero. Each 96-well plate can therefore accommodate 11 samples+1 Congo Red control (0.039-5 μM final in 2-fold steps). • 4) Seal the plate with aluminum film (Beckman 538619) and incubate for 10 minutes on ice. • 5) Raise the temperature to 37° C. and incubate for 3 to 5 hours (depending on the lot of the peptide). • 6) Remove the aluminum film and add 200 μL/well of ice cold assay buffer with urea, collecting the radiolabeled fibrils by vacuum filtration through 0.2 μm pore size GVWP filters in 96-well plates (Millipore MAGV N22, Bedford, Mass.). Determine the radioactivity of the filters using standard methods well-known to those skilled in the art. BASST (Beta-Amyloid Self-Seeding, Thioflavin T)
# Aβ(1-40) [2] = target: T1, Aβ(1-40); assay: BASST (Beta-Amyloid Self-Seeding, Thioflavin T), inhibitors of self-seeded amyloid fibril growth; assay type: biochemical; conditions: 30 μM soluble Aβ(1-40), 37° C., 3 to 5 hours, thioflavin T fluorescence; replicate values; letter = synthetic lot; read-out: BASST (IC50 = μM)
# Protocol: as §1
# Assay Buffer—50 mM sodium phosphate, pH 7.5, 100 mM NaCl, 0.02% NaN3, 1 M urea (filter and store at 4° C.)
# as §2
# The following are the amounts of the components of the reaction mixture that result in each of the 50 assay wells:
# • 1) Prepare the reaction mix above by mixing the components and storing on ice. • 2) Pipet 14.5 μL of reaction mixture into each of 50 wells of a polystyrene U-bottom 96-well microtiter plate (Corning 25881-96) on ice. • 3) Add 1.7 μL of diluted compound to be tested to each well in a column of eight, including solvent control. Serial 3-fold dilutions from 1 mM (100 μM final) in assay buffer−urea=7 dilutions+zero. Each 96-well plate can therefore accommodate 11 samples+1 Congo Red control (0.039-5 μM final in 2-fold steps). • 4) Seal the plate with aluminum film and incubate for 10 minutes on ice. • 5) Raise the temperature to 37° C. and incubate for 3 to 5 hours (depends on the lot of the peptide). • 6) Remove the aluminum film and add 250 μL/well of 5 μM thioflavin T (ThT) [T-3516, Sigma-Aldrich] in 50 mM glycine-NaOH, pH 8.5. Read fluorescence on a plate reader (ex=440 nm/20 nm; em=485 nm/20 nm) within 5 minutes. BAPA (Beta-Amyloid Peptide Aggregation)
# Aβ (1-42) = target: T2, Aβ (1-42) (Homo sapiens, UniProt P05067); assay: BATYM assay (Aβ (1-42) aggregation, Thioflavin T fluorescence); assay type: biochemical; conditions: Aβ 1-42 final concentration 100 μM, 37° C., 1 day, letter = synthetic lot
# T2 construct: Required Aβ (1-42) (California Peptide) was dried from its hexafluoroisopropanol (HFIP) stock solution; purchased California Peptide
# Protocol: Required Aβ (1-42) (California Peptide) was dried from its hexafluoroisopropanol (HFIP) stock solution. The Aβ (1-42) was dissolved in dimethylsulfoxide (DMSO) and then mixed with phosphate buffered saline (PBS) (pH 7.4). The mixed Aβ (1-42) solution was filtered with a 0.2 μm Omnipore membrane syringe filter Millipore, Bedford, Mass.). The compound to be tested in DMSO (50 times concentrate) was put into each well (0.5 μL/well) of a 96-well plate. The Aβ (1-42) solution was added into each well (24.5 μL/well). The plate was centrifuged at 1,000 g for 5 minutes and incubated at 37° C. for 1 day (Aβ 1-42; final concentration 100 μM).
# After incubation Thioflavin T (ThT) (30 μM) solution in glycine-NaOH buffer (pH 8.5, 50 mM) was added into each well (250 μL/well), fluorescence was measured (ex=440/20 nm, em=485/20 nm) using a fluorescence plate reader. The inhibitory activity was calculated as the reduction of fluorescence with the following formula: Inhibition (%)={(F(Aβ)−F(Aβ+compound)}/{F(Aβ)−[…]}×100
# The IC50s were calculated by a curve fitting program using the following equation. The data were obtained from two different experiments in triplicate.
# x=Concentration of tested compound (M),
# Aβ (1-40) peptide = target: T3, Aβ (1-40) peptide (Homo sapiens, UniProt P05067); assay: BAPA (Beta-Amyloid Peptide Aggregation, pH 6.0, filtration); assay type: biochemical; conditions: Aβ (1-40) 33 μM, pH 6.0, 2 to 4 hours at room temperature; replicate values; letter = synthetic lot
# T3 construct: 10 μL 0.5 mg/mL Aβ (1-40) peptide in 20% HFIP
# Protocol: Each 96-well plate can therefore accommodate 11 samples+1 Congo Red control (0.039-5 μM final in 2-fold steps). • 4) Seal the plate with aluminum film and incubate for 10 minutes on ice. • 5) Raise the temperature to 37° C. and incubate for 3 to 5 hours (depends on the lot of the peptide). • 6) Remove the aluminum film and add 250 μL/well of 5 μM thioflavin T (ThT) [T-3516, Sigma-Aldrich] in 50 mM glycine-NaOH, pH 8.5. […] The purpose of this assays is to provide a higher volume method of assaying the amount of beta amyloid aggregation using an endpoint assay based on filtration. In this assay, hexafluoroisopropanol (HFIP) is used to break down the initial amyloid peptide to a monomer state and use a concentration of 33 μM which is high enough so that aggregation will occur at pH 6.0 in several hours. Methods: […] Then, we incubate for 2 to 4 hours at room temperature. […] We wash the filter plate with 100 μL of the same phosphate buffer. Aggregation was detected on a Microbeta counter after impregnating the filters with Meltilex (1450-441) and is corrected for background.
# T2 sequence (P05067 672-713 limits assumed): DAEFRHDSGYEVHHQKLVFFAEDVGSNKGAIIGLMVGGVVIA
# T3 sequence (P05067 672-711 limits assumed): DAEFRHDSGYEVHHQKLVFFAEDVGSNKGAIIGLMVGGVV
# T1 sequence (P05067 672-711 limits assumed): as above
SMILES,IC50 (Aβ(1-40) [1]) [µM],IC50 (Aβ(1-40) [2]),IC50 (Aβ (1-42)) [µM],melting point [°C],IC50 (Aβ (1-40) peptide) [µM]
"COc1ccc(Nc2ccc(CCCCc3ccc(Cl)c(Cl)c3)cc2)c(C(=O)O)c1 [Example 121, 2-{4-[4-(3,4-Dichloro-phenyl)-butyl]-phenylamino}-5-methoxy-benzoic acid]",> 100,1 µM,–,155 to 158,–
"COc1cc(Nc2ccc(CCCc3ccc(Cl)c(Cl)c3)cc2)c([N+](=O)[O-])cc1C(=O)O [Example 138, 4-{4-[3-(3,4-Dichloro-phenyl)propyl]-phenylamino}-2-methoxy-5-nitro-benzoic acid]",–,–,–,74 to 78,–
"O=C(O)c1cc(F)ccc1Nc1ccc(CCCc2ccc(Cl)c(Cl)c2)cc1 [Example 139, 2-{4-[3-(3,4-Dichloro-phenyl)-propyl]-phenylamino}-5-fluoro-benzoic acid]",–,–,–,122 to 123,–
"Nc1ccc(Nc2ccc(CCCCCc3ccc(Cl)c(Cl)c3)cc2)c(C(=O)O)c1 [Example 140, 5-Amino-2-{4-[5-(3,4-dichloro-phenyl)pentyl]-phenylamino}-benzoic acid]",–,–,–,182 to 184,–
"O=C(NS(=O)(=O)c1ccccc1)c1ccccc1Nc1ccc(CCCc2ccc(Cl)c(Cl)c2)cc1 [Example 142, N-(2-{4-[3-(3,4-Dichloro-phenyl)propyl]-phenylamino}-benzoyl)-benzenesulfonamide]",> 100,2.1 µM,26.9,–,55
"O=C(O)c1cccc(C(F)(F)F)c1Nc1ccc(CCc2ccc(Cl)c(Cl)c2)cc1 [Example 146, 2-{4-[2-(3,4-Dichloro-phenyl)-ethyl]-phenylamino}-3-trifluoromethyl-benzoic acid]",> 100,30 µM,> 100,–,> 60
"CCCN(CCC)c1ccc(Nc2ccc(CCc3ccc(Cl)c(Cl)c3)cc2)c(C(=O)O)c1 [Example 149, 2-{4-[2-(3,4-Dichlorophenyl)-ethyl]-phenylamino}-5-dipropylamino-benzoic acid]",> 100,> 100 µM,> 100,–,> 60
"CCCCN(CCCC)c1ccc(Nc2ccc(CCc3ccc(Cl)c(Cl)c3)cc2)c(C(=O)O)c1 [Example 150, 5-Dibutylamino-2-{4-[2-(3,4-dichloro-phenyl)-ethyl]-phenylamino}-benzoic acid]",> 100,10 µM,> 100,–,76

# The next lines start with the values.
IC50 (Aβ(1-40) [1]) [µM],IC50 (Aβ(1-40) [2]),IC50 (Aβ (1-42)) [µM],melting point [°C],IC50 (Aβ (1-40) peptide) [µM],SMILES
> 100,6 µM,34.3,131 to 136,–,"O=C(O)c1ccccc1Nc1ccc(CCCc2ccc(-n3cccc3)cc2)cc1 [Example 46, 2-(4-{3-[4-(1H-Pyrrol-1-yl)phenyl]propyl}phenylamino)benzoic acid]"
25,10 µM,> 100,57 to 62,–,"CCN(CC)C(=O)c1ccc(CCCc2ccc(Nc3ccccc3C(=O)O)cc2)cc1 [Example 48, 2-{4-[3-(4-Diethylcarbamoylphenyl)propyl]phenylamino}benzoic acid]"
> 100,> 100 µM,> 100,236 to 239,–,"O=C(O)c1ccc(CCCc2ccc(Nc3ccccc3C(=O)O)cc2)cc1 [Example 49, 2-{4-[3-(4-Carboxyphenyl)propyl]phenylamino}benzoic acid]"
> 100,> 100 µM,> 100,137,–,"CCN(CC)Cc1ccc(CCCc2ccc(Nc3ccccc3C(=O)O)cc2)cc1 [Example 50, 2-{4-[3-(4-Diethylaminomethylphenyl)propyl]phenylamino}benzoic acid]"
> 100,0.3 µM,30,171 to 177,–,"O=C(O)c1ccccc1Nc1ccc(CCCc2ccc(N3CCCC3)cc2)cc1 [Example 53, 2-{4-[3-(4-Pyrrolidin-1-yl-phenyl)-propyl]-phenylamino}-benzoic acid]"
> 100,0.4 µM,43.9,59 to 61,–,"O=C(O)c1ccccc1Nc1ccc(CCCc2cccc(N3CCCCC3)c2)cc1 [Example 54, 2-{4-[3-(3-Piperidin-1yl-phenyl)-propyl]-phenylamino}-benzoic acid]"
> 100,2 µM and 300 nM (2×),–,203 to 206,–,"O=C(O)c1ccccc1Nc1ccc(CCc2ccc(N3CC[C@@H]4CCCC[C@H]4C3)cc2)cc1 [Example 82, 2(4-{2-[(4aS,8aR)-4-(Octahydro-isoquinolin-2-yl)-phenyl]-ethyl}-phenylamino)-benzoic acid]"
> 100,3 µM,> 100,–,53,"O=C(O)c1ccccc1Nc1ccc(CCc2ccc(Nc3ccccc3C(=O)O)cc2)cc1 [Example 136, 2-{4-[2-(4-{2-Hydroxycarbonylphenylamino}phenyl)ethyl]-phenylamino}-benzoic acid]"
> 100,7 µM,56.7,–,> 50,"O=C(NS(=O)(=O)C(F)(F)F)c1ccccc1Nc1ccc(CCCc2ccc(Cl)c(Cl)c2)cc1 [Example 141, N-(2-{4-[3-(3,4-Dichloro-phenyl)-propyl]-phenylamino}-benzoyl)-C,C,C,-trifluoro-methanesulfonamide]"
–,–,–,110 to 112,–,"Nc1ccc(CCCc2ccc(Nc3ccccc3C(=O)O)cc2)cc1 [Example 159, 2-{4-[3-(4-Aminophenyl)propyl]phenylamino}benzoic acid]"
